The record followed here is US20210299082A1, “FISETIN COMPOSITION AND A METHOD OF MAKING THE SAME” (priority 2020, published 2021).

One data set relates to skin of 20 people. The data set is described as follows: topical skin treatment. The data set is classed as in vivo, human. The conditions noted are these: 200 mM fisetin in polyethylene glycol containing titanium nanoparticles; applied to the skin of 20 people for 2 days. Here is the method: In yet another example of the invention, fisetin can be used as a topical skin treatment. Fisetin was dissolved in polyethylene glycol containing titanium nanoparticles with a resulting fisetin concentration of 200 mM. Fisetin was applied to the skin of 20 people for 2 days.

In a further data set the test system is blood glucose level. The data set is described as follows: blood glucose level in a person after oral fisetin. The data set is classed as in vivo, human. The method, then:
In still another example of the embodiment, fisetin can be used to decrease blood glucose level. Fisetin (500 mg) was ingested by a person after mixing with 75 mL of 53% ethanol and 47% water for 3 consecutive days.

Data set [1] can be described thus: solubility of fisetin in water and in ethanol. The data set is classed as physicochemical. Here is the method: In one embodiment of the invention, a fisetin composition comprises fisetin and a second component that is selected from a group that comprises ethanol. The group may further comprise water. In one example, the solubility of fisetin in water is substantially 0.05 mg/mL or more, such as 0.1 mg/mL or more, 0.15 mg/mL or more, or 0.2 mg/mL. In another example, the solubility of fisetin in ethanol is substantially 2 mg/mL or more, such as 4 mg/mL or more, 6 mg/mL or more, 8 mg/mL or more, or 10 mg/mL or more.

A further data set concerns joint pain in a person. Briefly: joint pain relief in a person after oral fisetin. The data set is classed as in vivo, human. The conditions noted are these: for reported joint pain: ingested 5 consecutive days. Here is the method: In still another embodiment of the invention, the fisetin composition is used to relieve joint pain in a person. A person ingested fisetin (500 mg) in capsule powder form for 5 consecutive days, fisetin (500 mg) mixed in 35 mL of MCT oil for 5 consecutive days, or fisetin (500 mg) mixed in 40 mL of 40% ethanol and 60% water for 5 consecutive days, each test separated by a month. Reported joint pain decreased only after consuming fisetin in 40% ethanol and 60% water, but not the other regimens.

Where [2] appears, read: 500 mg in 75 mL of 53% ethanol and 47% water, 3 consecutive days.
Where [3] appears, read: 500 mg for 5 consecutive days, regimen not specified, stated after the 40% ethanol and 60% water result.

Like-named read-outs stand apart in the source and are kept apart here.

As usually defined, the solubility is how much of the substance goes into solution per volume.

In the case of `O=c1c(O)c(-c2ccc(O)c(O)c2)oc2cc(O)ccc12` [fisetin], in the data set with skin of 20 people, the “skin appearance reported by subjects” value is “improved skin appearance”. For the same molecule, the energy entry in the data set on blood glucose level (setting [2]) and in the data set on joint pain in a person (setting [3]) was “slight increase” each time. The metabolism entry in the data set with blood glucose level (setting [2]) and with joint pain in a person (setting [3]) was “slight increase” throughout. In addition, the weight decrease entry is “approx. 1 kg” in the data set on blood glucose level (500 mg in 75 mL of 53% ethanol and 47% water, 3 consecutive days, to a BMI 22.1); “approximately 1 kg” in the data set with joint pain in a person (500 mg for 5 consecutive days, to a BMI 23.7). In the data set on blood glucose level (500 mg mixed with 75 mL of 53% ethanol and 47% water, 3 consecutive days, decreased from 5.7 mmol/L), the “waking blood glucose level after the administration” value is given as 4.8 mmol/L. Moreover, the muscle gain entry in the data set with blood glucose level (in a month afterwards without increased exercise) was “slight muscle gain”. For the same molecule, the solubility in data set [1] (in water, read-out: solubility of fisetin in water) was at least 50 µg/mL; in data set [1] (organic solvent or mixture, in ethanol, read-out: solubility of fisetin in ethanol), at least 2000 µg/mL. The reported joint pain entry is given as “not” in the data set on joint pain in a person (500 mg in capsule powder form); “not” with joint pain in a person (500 mg mixed in 35 mL of MCT oil); “decreased” in the data set on joint pain in a person (500 mg mixed in 40 mL of 40% ethanol and 60% water).
